From patent US12121524B2, “DNA-PK inhibitors” (VERTEX PHARMACEUTICALS INCORPORATED, priority 2018, dated 2024)

Molecular target: DNA-PK (Homo sapiens, UniProt P78527)
Assay: DNA-PK inhibition assay (standard radiometric 33P-ATP kinase assay)
Type: biochemical
Settings: 100 μM ATP, approx. 6 nM DNA-PK
Description: Compounds were screened for their ability to inhibit DNA-PK kinase using a standard radiometric assay. Briefly, in this kinase assay the transfer of the terminal ^33P-phosphate in ^33P-ATP to a peptide substrate is interrogated. The assay was carried out in 384-well plates to a final volume of 50 μL per well containing approximately 6 nM DNA-PK, 50 mM HEPES (pH 7.5), 10 mM MgCl2, 25 mM NaCl, 0.01% BSA, 1 mM DTT, 10 μg/mL sheared double-stranded DNA (obtained from Sigma), 0.8 mg/mL DNA-PK peptide (Glu-Pro-Pro-Leu-Ser-Gln-Glu-Ala-Phe-Ala-Asp-Leu-Trp-Lys-Lys-Lys, obtained from American Peptide), and 100 μM ATP.
Accordingly, compounds of the invention were dissolved in DMSO to make 10 mM initial stock solutions. Serial dilutions in DMSO were then made to obtain the final solutions for the assay. A 0.75 μL aliquot of DMSO or inhibitor in DMSO was added to each well, followed by the addition of ATP substrate solution containing ^33P-ATP (obtained from Perkin Elmer). The reaction was started by the addition of DNA-PK, peptide and ds-DNA. After 45 min, the reaction was quenched with 25 μL of 5% phosphoric acid. The reaction mixture was transferred to MultiScreen HTS 384-well PH plates (obtained from Millipore), allowed to bind for one hour, and washed three times with 1% phosphoric acid. Following the addition of 50 μL of Ultima Gold™ high efficiency scintillant (obtained from Perkin Elmer), the samples were counted in a Packard TopCount NXT Microplate Scintillation and Luminescence Counter (Packard BioScience). The Ki values were calculated using Microsoft Excel Solver macros to fit the data to the kinetic model for competitive tight-binding inhibition.

Ki [nM]	SMILES
< 100	c1cnc(N[C@H]2CC[C@@H](Nc3cc(N4CCOCC4)cc4nccnc34)CC2)nc1 [Compound 18, N^1-(7-morpholinoquinoxalin-5-yl)-N^4-(pyrimidin-2-yl)cyclohexane-1,4-diamine]
< 100	c1cnc(N[C@H]2CC[C@@H](Nc3cc(N4CCOCC4)cc4nonc34)CC2)nc1 [Compound 23, (cis)-N^1-(6-morpholinobenzo[c][1,2,5]oxadiazol-4-yl)-N^4-(pyrimidin-2-yl)cyclohexane-1,4-diamine]
< 100	c1ccc(N[C@H]2CC[C@@H](Nc3cc(N4CCOCC4)cc4nccnc34)CC2)nc1 [Compound 24]
< 100	c1cnc(N[C@H]2CC[C@@H](Nc3cc(N4CCOCC4)cc4nccnc34)CC2)cn1 [Compound 27]
< 100	c1cnc(N[C@H]2CC[C@@H](Oc3cc(N4CCOCC4)cc4nccnc34)CC2)nc1 [Compound 28, N-((cis)-4-((7-morpholinoquinoxalin-5-yl)oxy)cyclohexyl)pyrimidin-2-amine]
< 100	O=C(O)c1cnc(N[C@H]2CC[C@@H](Nc3cc(N4CCOCC4)cc4nccnc34)CC2)nc1 [Compound 29]
< 100	c1ncc(N[C@H]2CC[C@@H](Nc3cc(N4CCOCC4)cc4nccnc34)CC2)cn1 [Compound 30]
< 100	COC(=O)c1cnc(N[C@H]2CC[C@@H](Nc3cc(N4CCOCC4)cc4nccnc34)CC2)cn1 [Compound 32]
< 100	c1cnc(N[C@H]2CC[C@@H](Oc3cc(N4CCOCC4)cc4nccnc34)CC2)cn1 [Compound 33]
< 100	C1=C(c2cc(O[C@H]3CC[C@@H](Nc4ncccn4)CC3)c3nccnc3c2)CCOC1 [Compound 36, N-[(cis)-4-[7-(3,6-dihydro-2H-pyran-4-yl)quinoxalin-5-yl]oxycyclohexyl]pyrimidin-2-amine]
< 100	Fc1cnc(N[C@H]2CC[C@@H](Oc3cc(N4CCOCC4)cc4nccnc34)CC2)nc1 [Compound 37]
< 100	Clc1cc(N[C@H]2CC[C@@H](Oc3cc(N4CCOCC4)cc4nccnc34)CC2)ncn1 [Compound 39]
< 100	N#Cc1cnc(N[C@H]2CC[C@@H](Oc3cc(N4CCOCC4)cc4nccnc34)CC2)nc1 [Compound 44]
< 100	Brc1cnc(N[C@H]2CC[C@@H](Oc3cc(N4CCOCC4)cc4nccnc34)CC2)nc1 [Compound 45]
< 100	c1cnc(O[C@H]2CC[C@@H](Nc3cc(N4CCOCC4)cc4nccnc34)CC2)nc1 [Compound 46]
< 100	Fc1ccnc(N[C@H]2CC[C@@H](Oc3cc(N4CCOCC4)cc4nccnc34)CC2)n1 [Compound 49]
< 100	Fc1nccc(N[C@H]2CC[C@@H](Oc3cc(N4CCOCC4)cc4nccnc34)CC2)n1 [Compound 50]
< 100	Fc1cc(N[C@H]2CC[C@@H](Oc3cc(N4CCOCC4)cc4nccnc34)CC2)ncn1 [Compound 51]
< 100	Cc1cc(C)nc(N[C@H]2CC[C@@H](Oc3cc(N4CCOCC4)cc4nccnc34)CC2)n1 [Compound 52]
< 100	c1cnc(N[C@H]2CC[C@@H](Oc3cc(N4C[C@H]5CC[C@@H](C4)O5)cc4nccnc34)CC2)nc1 [Compound 53]
< 100	COc1cncc(N[C@H]2CC[C@@H](Oc3cc(N4CCOCC4)cc4nccnc34)CC2)n1 [Compound 54]

Ki [nM]	SMILES
< 100	N#Cc1ccc(N[C@H]2CC[C@@H](Oc3cc(N4CCOCC4)cc4nccnc34)CC2)nn1 [Compound 55]
< 100	N#Cc1ccc(N[C@H]2CC[C@@H](Oc3cc(N4CCOCC4)cc4nccnc34)CC2)nc1 [Compound 59]
< 100	Fc1ccc(N[C@H]2CC[C@@H](Oc3cc(N4CCOCC4)cc4nccnc34)CC2)nn1 [Compound 60]
< 100	O=C(N[C@H]1CC[C@@H](Oc2cc(N3CCOCC3)cc3nccnc23)CC1)C1CC1 [Compound 61]
< 100	CCCCc1cnc2cc(N3CCOCC3)cc(O[C@H]3CC[C@@H](Nc4ncccn4)CC3)c2n1 [Compound 63]
< 100	CCCCc1cnc2cc(N3CCOCC3)cc(O[C@H]3CC[C@@H](Nc4ncc(Br)cn4)CC3)c2n1 [Compound 64]
< 100	NC(=O)c1cnc(N[C@H]2CC[C@@H](Oc3cc(N4CCOCC4)cc4nccnc34)CC2)nc1 [Compound 65]
< 100	CCOCCOc1cnc(N[C@H]2CC[C@@H](Oc3cc(N4CCOCC4)cc4nccnc34)CC2)nc1 [Compound 66]
< 100	CN(C)c1cnc(N[C@H]2CC[C@@H](Oc3cc(N4CCOCC4)cc4nccnc34)CC2)nc1 [Compound 67]
< 100	O=C(O)c1cnc(N[C@H]2CC[C@@H](Oc3cc(N4CCOCC4)cc4nccnc34)CC2)nc1 [Compound 69]
< 100	CNC(=O)c1cnc(N[C@H]2CC[C@@H](Oc3cc(N4CCOCC4)cc4nccnc34)CC2)nc1 [Compound 71]
< 100	CN(C)C(=O)c1cnc(N[C@H]2CC[C@@H](Oc3cc(N4CCOCC4)cc4nccnc34)CC2)nc1 [Compound 72]
< 100	N#Cc1ccnc(N[C@H]2CC[C@@H](Oc3cc(N4CCOCC4)cc4nccnc34)CC2)c1 [Compound 84]
< 100	N#Cc1cccnc1N[C@H]1CC[C@@H](Oc2cc(N3CCOCC3)cc3nccnc23)CC1 [Compound 87]
< 100	O=C(O)c1ccnc(N[C@H]2CC[C@@H](Oc3cc(N4CCOCC4)cc4nccnc34)CC2)n1 [Compound 93]
< 100	OCc1cnc(N[C@H]2CC[C@@H](Oc3cc(N4CCOCC4)cc4nccnc34)CC2)nc1 [Compound 94]
< 100	Fc1cc(F)nc(N[C@H]2CC[C@@H](Oc3cc(N4CCOCC4)cc4nccnc34)CC2)n1 [Compound 104]
< 100	CN(C)C(=O)c1cnc(N[C@H]2CC[C@@H](Oc3cc(N4CCOCC4)cc4nccnc34)CC2)cn1 [Compound 108]
< 100	c1cnc2c(O[C@H]3CC[C@@H](Nc4ncc(C5CC5)cn4)CC3)cc(N3CCOCC3)cc2n1 [Compound 109]
< 100	COc1cnc(N[C@H]2CC[C@@H](Oc3cc(N4CCOCC4)cc4nccnc34)CC2)nc1 [Compound 134, 5-methoxy-N-((cis)-4-((7-morpholinoquinoxalin-5-yl)oxy)cyclohexyl)pyrimidin-2-amine]
< 100	CCOCCc1cnc(N[C@H]2CC[C@@H](Oc3cc(N4CCOCC4)cc4nccnc34)CC2)nc1 [Compound 135]

Ki [nM]	SMILES
< 100	O=C(O)c1ccc(N[C@H]2CC[C@@H](Oc3cc(N4CCOCC4)cc4nccnc34)CC2)nc1 [Compound 139]
< 100	NC(=O)c1ccc(N[C@H]2CC[C@@H](Oc3cc(N4CCOCC4)cc4nccnc34)CC2)nc1 [Compound 140]
< 100	Cc1cnc(N[C@H]2CC[C@@H](Oc3cc(N4CCOCC4)cc4nccnc34)CC2)nc1 [Compound 142]
< 100	Nc1cnc(N[C@H]2CC[C@@H](Oc3cc(N4CCOCC4)cc4nccnc34)CC2)nc1 [Compound 143]
< 100	CNC(=O)c1ccc(N[C@H]2CC[C@@H](Oc3cc(N4CCOCC4)cc4nccnc34)CC2)nc1 [Compound 144]
< 100	CN(C)C(=O)c1ccc(N[C@H]2CC[C@@H](Oc3cc(N4CCOCC4)cc4nccnc34)CC2)nc1 [Compound 145]
< 100	COC(=O)c1ccc(N[C@H]2CC[C@@H](Oc3cc(N4CCOCC4)cc4nccnc34)CC2)nc1 [Compound 146]
< 100	CCN(CC)c1cnc(N[C@H]2CC[C@@H](Oc3cc(N4CCOCC4)cc4nccnc34)CC2)nc1 [Compound 155]
< 100	Oc1cnc(N[C@H]2CC[C@@H](Oc3cc(N4CCOCC4)cc4nccnc34)CC2)nc1 [Compound 158]
< 100	OCc1ccc(N[C@H]2CC[C@@H](Oc3cc(N4CCOCC4)cc4nccnc34)CC2)nc1 [Compound 160]
< 100	COCc1cnc(N[C@H]2CC[C@@H](Oc3cc(N4CCOCC4)cc4nccnc34)CC2)nc1 [Compound 161]
< 100	CC(C)NC(=O)c1cnc(N[C@H]2CC[C@@H](Oc3cc(N4CCOCC4)cc4nccnc34)CC2)nc1 [Compound 162]
< 100	Brc1ccc(N[C@H]2CC[C@@H](Oc3cc(N4CCOCC4)cc4nccnc34)CC2)nc1 [Compound 164]
< 100	OC1CCN(c2ccnc(N[C@H]3CC[C@@H](Oc4cc(N5CCOCC5)cc5nccnc45)CC3)n2)C1 (some centres unmarked) [Compound 187]
< 100	FC(F)(F)c1ccc(N[C@H]2CC[C@@H](Oc3cc(N4CCOCC4)cc4nccnc34)CC2)nc1 [Compound 189]
< 100	Cc1cnc2c(O[C@H]3CC[C@@H](Nc4ncccn4)CC3)cc(N3CCOCC3)cc2n1 [Compound 190]
< 100	Cc1cnc2cc(N3CCOCC3)cc(O[C@H]3CC[C@@H](Nc4ncccn4)CC3)c2n1 [Compound 191]
< 100	COc1cc(N[C@H]2CC[C@@H](Oc3cc(N4CCOCC4)cc4nccnc34)CC2)ncn1 [Compound 194]
< 100	N#Cc1cccc(N[C@H]2CC[C@@H](Oc3cc(N4CCOCC4)cc4nccnc34)CC2)n1 [Compound 195]
< 100	Nc1ccc(N[C@H]2CC[C@@H](Oc3cc(N4CCOCC4)cc4nccnc34)CC2)nc1 [Compound 197]
